The source of these data is ChEMBL document CHEMBL4130508, “Structural Sequencing of Oligopeptides Aided by 1H Iterative Full-Spin Analysis” (2017).

One may read the MIC as the least concentration at which growth counts as inhibited. A low value points to inhibition by little substance.

SMILES strings stand for the structures. In brackets after ≈: the same amount, converted by molar mass. Numbered stars: 1 amine (or outer) side, 2 acyl side, 3 side chain; on linkers, the order of the positions; unused ones are H or OH. Bridge positions count the residues as written; N and C are the ends. Square brackets hold non-standard residues; d marks the D form. Peptide text beside a SMILES is read from it. * marks the point of attachment. Phe(3R-OH) = O=C([C@@H](N[*:1])[C@H](O[*:3])c1ccccc1)[*:2]; NMeTrp(4-OMe) = CN[C@@H](Cc1c[nH]c2cccc(OC)c12)C(=O)O; NMeaIle = CC[C@@H](C)[C@H](NC)C(=O)O; NMe2Val = CC(C)[C@@H](C(=O)*)N(C)C; NMeT = CN[C@H](C(=O)O)[C@@H](C)O; NMeL = CN[C@@H](CC(C)C)C(=O)O; NMeV = CN[C@H](C(=O)O)C(C)C

This assay concerns Mycobacterium tuberculosis. The assay is described as follows: Antimycobacterial activity against Mycobacterium tuberculosis H37Rv ATCC 27294 by Alamar blue assay. The format is functional.
In turn, `CC[C@@H](C)[C@@H](C(=O)N[C@@H]1C(=O)N(C)[C@@H]([C@@H](C)O)C(=O)N[C@@H]([C@@H](C)CC)C(=O)N(C)[C@@H](CC(C)C)C(=O)N[C@@H](C(C)C)C(=O)N(C)[C@@H](C(C)C)C(=O)N(C)[C@@H](Cc2c[nH]c3cccc(OC)c23)C(=O)N[C@@H](C(C)C)C(=O)N[C@@H]([C@H](O)c2ccccc2)C(=O)N[C@@H](C(C)C)C(=O)O[C@@H]1C)N(C)C(=O)[C@@H](NC(=O)[C@H](C(C)C)N(C)C)C(C)C` showed an MIC of 0.26 µg/mL (≈ 0.161 µM).
Compound `CC[C@@H](C)[C@@H](C(=O)N[C@@H]1C(=O)N(C)[C@@H]([C@@H](C)O)C(=O)N[C@@H](C(C)C)C(=O)N(C)[C@@H](CC(C)C)C(=O)N[C@@H](C(C)C)C(=O)N(C)[C@@H](C(C)C)C(=O)N(C)[C@@H](Cc2c[nH]c3cccc(OC)c23)C(=O)N[C@@H](C(C)C)C(=O)N[C@@H]([C@H](O)c2ccccc2)C(=O)N[C@@H](C(C)C)C(=O)O[C@@H]1C)N(C)C(=O)[C@@H](NC(=O)[C@H](C(C)C)N(C)C)C(C)C` (NMe2Val-V[NMeaIle]T[NMeT]V[NMeL]V[NMeV][NMeTrp(4-OMe)]V[Phe(3R-OH)]V; ester 3-C) showed an MIC of 0.26 µg/mL (≈ 0.162 µM).
The result for `CC[C@@H](C)[C@@H](C(=O)N[C@@H]1C(=O)N(C)[C@@H]([C@@H](C)O)C(=O)N[C@@H](C(C)C)C(=O)N(C)[C@@H](CC(C)C)C(=O)N[C@@H](C(C)C)C(=O)N(C)[C@@H](C(C)C)C(=O)N(C)[C@@H](Cc2c[nH]c3cccc(OC)c23)C(=O)N[C@@H](C(C)C)C(=O)N[C@@H](Cc2ccccc2)C(=O)N[C@@H](C(C)C)C(=O)O[C@@H]1C)N(C)C(=O)[C@@H](NC(=O)[C@H](C(C)C)N(C)C)C(C)C` reads 0.55 µg/mL (≈ 0.347 µM); that for `CC[C@@H](C)[C@@H](C(=O)N[C@@H]1C(=O)N(C)[C@@H]([C@@H](C)O)C(=O)N[C@@H](C(C)C)C(=O)N(C)[C@@H](CC(C)C)C(=O)N[C@@H](C(C)C)C(=O)N(C)[C@@H](C(C)C)C(=O)N(C)[C@@H](Cc2c[nH]c3cccc(OC)c23)C(=O)N[C@@H](C(C)C)C(=O)N[C@@H]([C@H](O)c2ccccc2)C(=O)N[C@@H]([C@@H](C)CC)C(=O)O[C@@H]1C)N(C)C(=O)[C@@H](NC(=O)[C@H](C(C)C)N(C)C)C(C)C`, 0.26 µg/mL (≈ 0.161 µM).
`CC[C@@H](C)[C@@H](C(=O)N[C@@H]1C(=O)N(C)[C@@H]([C@@H](C)O)C(=O)N[C@@H](C(C)C)C(=O)N(C)[C@@H](CC(C)C)C(=O)N[C@@H](C(C)C)C(=O)N(C)[C@@H](C(C)C)C(=O)N(C)[C@@H](Cc2c[nH]c3cccc(OC)c23)C(=O)N[C@@H]([C@@H](C)CC)C(=O)N[C@@H]([C@H](O)c2ccccc2)C(=O)N[C@@H](C(C)C)C(=O)O[C@@H]1C)N(C)C(=O)[C@@H](NC(=O)[C@H](C(C)C)N(C)C)C(C)C` returned an MIC of 0.26 µg/mL (≈ 0.161 µM).
The result for `COc1cccc2[nH]cc(C[C@H]3C(=O)N[C@@H](C(C)C)C(=O)N[C@@H]([C@H](O)c4ccccc4)C(=O)N[C@@H](C(C)C)C(=O)O[C@H](C)[C@H](NC(=O)[C@H](C(C)C)N(C)C(=O)[C@@H](NC(=O)[C@H](C(C)C)N(C)C)C(C)C)C(=O)N(C)[C@@H]([C@@H](C)O)C(=O)N[C@@H](C(C)C)C(=O)N(C)[C@@H](CC(C)C)C(=O)N[C@@H](C(C)C)C(=O)N(C)[C@@H](C(C)C)C(=O)N3C)c12` (NMe2Val-V[NMeV]T[NMeT]V[NMeL]V[NMeV][NMeTrp(4-OMe)]V[Phe(3R-OH)]V; ester 3-C) reads 0.15 µg/mL (≈ 0.0946 µM); that for `COc1cccc2[nH]cc(C[C@H]3C(=O)N[C@@H](C(C)C)C(=O)N[C@@H](Cc4ccccc4)C(=O)N[C@@H](C(C)C)C(=O)O[C@H](C)[C@H](NC(=O)[C@H](C(C)C)N(C)C(=O)[C@@H](NC(=O)[C@H](C(C)C)N(C)C)C(C)C)C(=O)N(C)[C@@H]([C@@H](C)O)C(=O)N[C@@H](C(C)C)C(=O)N(C)[C@@H](CC(C)C)C(=O)N[C@@H](C(C)C)C(=O)N(C)[C@@H](C(C)C)C(=O)N3C)c12` (NMe2Val-V[NMeV]T[NMeT]V[NMeL]V[NMeV][NMeTrp(4-OMe)]VFV; ester 3-C), 0.13 µg/mL (≈ 0.0828 µM).
